Results from US20120083522A1, “MODULATION OF INFLAMMATORY RESPONSES BY FACTOR XI” (Isis Pharmaceuitcals, inc., priority 2009, published 2012).
In the oligonucleotide strings, read from the 5' end, every base follows the letter of its sugar. An asterisk marks phosphorothioate; unmarked linkages are phosphodiester. Other units and linkages are bracketed, terminal groups are in braces. A string of capitals states the bases alone. e = 2'-O-(2-methoxyethyl) (MOE); [5mC] = 5-methylcytosine; d = 2'-deoxy (DNA)

Tests used:
Assay type in all cases: cell-based
[1] = tested on: human Factor XI mRNA; test: Antisense inhibition in HepG2 cells by microwalk gapmers, 75 nM, lipofectin (Example 3); conditions: HepG2 cells, 75 nM
Description: These gapmers were designed by creating gapmers shifted slightly upstream and downstream (i.e. “microwalk”) of the original gapmers from Table 3. Gapmers were also created with various motifs, e.g. 5-10-5 MOE, 3-14-3 MOE, and 2-13-5 MOE. These gapmers were tested in vitro. Cultured HepG2 cells at a density of 10,000 cells per well were transfected using lipofectin reagent with 75 nM antisense oligonucleotide. After a treatment period of approximately 24 hours, RNA was isolated from the cells and Factor XI mRNA levels were measured by quantitative real-time PCR. Factor XI mRNA levels were adjusted according to total RNA content, as measured by RIBOGREEN®. Results are presented as percent inhibition of Factor XI, relative to untreated control cells.
The chimeric antisense oligonucleotides in Table 4 were designed as 5-10-5 MOE, 3-14-3 MOE, and 2-13-5 MOE gapmers. The first listed gapmers in Table 4 are the original gapmers (see Table 3) from which the remaining gapmers were designed via microwalk and are designated by an asterisk. The 5-10-5 gapmers are 20 nucleotides in length, wherein the central gap segment is comprised of 10 2′-deoxynucleotides and is flanked on both sides (in the 5′ and 3′ directions) by wings comprising 5 nucleotides each. The 3-14-3 gapmers are 20 nucleotides in length, wherein the central gap segment is comprised of 14 2′-deoxynucleotides and is flanked on both sides (in the 5′ and 3′ directions) by wings comprising 3 nucleotides each. The 2-13-5 gapmers are 20 nucleotides in length, wherein the central gap segment is comprised of 13 2′-deoxynucleotides. The central gap is flanked on the 5′ end with a wing comprising 2 nucleotides and on the 3′ end with a wing comprising 5 nucleotides. For each of the motifs (5-10-5, 3-14-3, and 2-13-5), each nucleotide in the 5′ wing segment and each nucleotide in the 3′ wing segment has a 2′-MOE modification. The internucleoside linkages throughout each gapmer are phosphorothioate (P═S) linkages. All cytidine residues throughout each gapmer are 5-methylcytidines. “Target start site” indicates the 5′-most nucleotide to which the gapmer is targeted. “Target stop site” indicates the 3′-most nucleotide to which the gapmer is targeted. Each gapmer listed in Table 4 is targeted to SEQ ID NO: 1 (GENBANK Accession No. NM_000128.3).

[2] = tested on: human Factor XI mRNA; test: Dose-dependent inhibition in HepG2 cells, lipofectin (Example 4); conditions: 16 hours
Description: (§1) Cells were plated at a density of 10,000 cells per well and transfected using lipofectin reagent with 9.375 nM, 18.75 nM, 37.5 nM and 75 nM concentrations of antisense oligonucleotide, as specified in Table 9. After a treatment period of approximately 16 hours, RNA was isolated from the cells and Factor XI mRNA levels were measured by quantitative real-time PCR. Human Factor XI primer probe set RTS 2966 was used to measure mRNA levels. Factor XI mRNA levels were adjusted according to total RNA content, as measured by RIBOGREEN®. Results are presented as percent inhibition of Factor XI, relative to untreated control cells.

[3] = tested on: human Factor XI mRNA; test: Dose-dependent inhibition in HepG2 cells, electroporation (Example 4); conditions: 16 hours
Description: as §1, with “The gapmers were also transfected via electroporation and their dose dependent inhibition of human Factor XI mRNA was measured. Cells” for “Cells”, “20,000” for “10,000”, “via electroporation” for “using lipofectin reagent”, “0.7 μM, 2.2 μM, 6.7 μM,” for “9.375 nM, 18.75 nM, 37.5 nM”, “20 μM” for “75 nM”, “10.” for “9.”

[4] = oligonucleotides targeted to nucleobases 738 to 762 of SEQ ID NO: 1
[5] = oligonucleotides targeted to nucleobases 1018 to 1042 of SEQ ID NO: 1

Substance	% inhibition of human Factor XI mRNA levels ([1]; oligonucleotides targeted to nucleobases 1062 to 1091 of SEQ ID NO: 1)	percent inhibition of Factor XI mRNA, relative to untreated control cells ([2]; 9.375 nM)	percent inhibition of Factor XI mRNA, relative to untreated control cells ([2]; 18.75 nM)	percent inhibition of Factor XI mRNA, relative to untreated control cells ([2]; 37.5 nM)	percent inhibition of Factor XI mRNA, relative to untreated control cells ([2]; 75 nM)	percent inhibition of Factor XI mRNA, relative to untreated control cells ([3]; 0.7 μM)	percent inhibition of Factor XI mRNA, relative to untreated control cells ([3]; 2.2 μM)	percent inhibition of Factor XI mRNA, relative to untreated control cells ([3]; 6.7 μM)	percent inhibition of Factor XI mRNA, relative to untreated control cells ([3]; 20 μM)	% inhibition of human Factor XI mRNA levels [1, 4]	% inhibition of human Factor XI mRNA levels [1, 5]
412215 (antisense eA*eT*eT*e[5mC]*eT*dT*dT*dG*dG*dG*d[5mC]*d[5mC]*dA*dT*dT*e[5mC]*e[5mC]*eT*eG*eG) [compound 412215]	82%										
416827 (antisense eT*eA*eT*eG*e[5mC]*d[5mC]*d[5mC]*dT*dT*d[5mC]*dA*dT*dG*dT*d[5mC]*eT*eA*eG*eG*eT) [compound 416827]		31%	42%	62%	77%	37%	68%	87%	92%		
416830 (antisense eT*e[5mC]*e[5mC]*eG*eT*dG*d[5mC]*dA*dT*d[5mC]*dT*dT*dT*d[5mC]*dT*eT*eG*eG*e[5mC]*eA) [compound 416830]										81%	
416831 (antisense eA*eT*e[5mC]*e[5mC]*eG*dT*dG*d[5mC]*dA*dT*d[5mC]*dT*dT*dT*d[5mC]*eT*eT*eG*eG*e[5mC]) [compound 416831]										91%	
416832 (antisense e[5mC]*eA*eT*e[5mC]*e[5mC]*dG*dT*dG*d[5mC]*dA*dT*d[5mC]*dT*dT*dT*e[5mC]*eT*eT*eG*eG) [compound 416832]										79%	
416833 (antisense eT*e[5mC]*eA*eT*e[5mC]*d[5mC]*dG*dT*dG*d[5mC]*dA*dT*d[5mC]*dT*dT*eT*e[5mC]*eT*eT*eG) [compound 416833]										65%	
416834 (antisense eG*eT*e[5mC]*eA*eT*d[5mC]*d[5mC]*dG*dT*dG*d[5mC]*dA*dT*d[5mC]*dT*eT*eT*e[5mC]*eT*eT) [compound 416834]										58%	
416835 (antisense eA*e[5mC]*e[5mC]*eG*eG*dG*dA*dT*dG*dA*dT*dG*dA*dG*dT*eG*e[5mC]*eA*eG*eA) [compound 416835]											83%
416836 (antisense eA*eA*e[5mC]*e[5mC]*eG*dG*dG*dA*dT*dG*dA*dT*dG*dA*dG*eT*eG*e[5mC]*eA*eG) [compound 416836]											89%
416837 (antisense e[5mC]*eA*eA*e[5mC]*e[5mC]*dG*dG*dG*dA*dT*dG*dA*dT*dG*dA*eG*eT*eG*e[5mC]*eA) [compound 416837]											90%
416895 (antisense eT*eA*eT*dG*d[5mC]*d[5mC]*d[5mC]*dT*dT*d[5mC]*dA*dT*dG*dT*d[5mC]*dT*dA*eG*eG*eT) [compound 416895]		39%	57%	66%	71%	0%	62%	70%	91%		
416896 (antisense eT*eT*eA*dT*dG*d[5mC]*d[5mC]*d[5mC]*dT*dT*d[5mC]*dA*dT*dG*dT*d[5mC]*dT*eA*eG*eG) [compound 416896]		22%	39%	57%	81%	12%	35%	81%	89%		
416945 (antisense eA*eA*dT*dG*dT*d[5mC]*dT*dT*dT*dG*dT*dT*dG*d[5mC]*dA*eA*eG*e[5mC]*eG*e[5mC]) [compound 416945]		34%	45%	62%	65%	48%	70%	81%	88%		
416969 (antisense eG*e[5mC]*d[5mC]*d[5mC]*dT*dT*d[5mC]*dA*dT*dG*dT*d[5mC]*dT*dA*dG*eG*eT*e[5mC]*e[5mC]*eA) [compound 416969]		17%	39%	61%	76%	25%	34%	86%	92%		
416972 (antisense eT*eA*dT*dG*d[5mC]*d[5mC]*d[5mC]*dT*dT*d[5mC]*dA*dT*dG*dT*d[5mC]*eT*eA*eG*eG*eT) [compound 416972]		32%	40%	60%	69%	25%	30%	48%	88%		
416973 (antisense eT*eT*dA*dT*dG*d[5mC]*d[5mC]*d[5mC]*dT*dT*d[5mC]*dA*dT*dG*dT*e[5mC]*eT*eA*eG*eG) [compound 416973]		60%	75%	85%	87%	20%	48%	86%	93%		
